Literature values as cited in US20030180704A1, “Ice-controlling molecules and uses thereof” (priority 2002, published 2003).

Test system: Crithidia fasciculata
Conditions: cryopreservation at -20 C, different media

| SMILES | toxicity to Crithidia fasciculata |
| --- | --- |
| OC1CCCC(O)C1 (stereo not shown) [1,3-cyclohexanediol] | toxic |

Same assay, conditions: stored at -20 C, different media

| SMILES | ability to cryopreserve Crithidia fasciculata without toxicity |
| --- | --- |
| CC(=O)NCCO [N-acetylethanolamine] | potential outstanding cryoprotectants |
| OCCC(O)CO (stereo not shown) [1,2,4-butantriol] | potential outstanding cryoprotectants |
| OC1CCC(O)CC1 (stereo not shown) [1,4-cyclohexanediol] | potential outstanding cryoprotectants |
| OCC(O)CO [glycerol] | best cryoprotectant |
| C[S+](C)[O-] [dimethylsulfoxide] | potential outstanding cryoprotectants |
| CC(O)CO (stereo not shown) [propylene glycol] | potential outstanding cryoprotectants |
